Measurements from US20230279004A1, “SOLID FORMS, SALTS, AND PROCESSES OF PREPARATION OF A CDK2 INHIBITOR” (Incyte Corporation, priority 2022, published 2023).
pIC50: −log10 of the molar value. Marks after values point to notes of the source that are not given here.

Tests used:
[1] = Solid form change on heating (DSC); format: physicochemical
Description: The DSC was obtained from TA Instruments Differential Scanning Calorimetry, Discovery DSC2500 with autosampler. The DSC instrument conditions were as follows: 20-300° C. at 10° C./min; Tzero aluminum sample pan and lid; and nitrogen gas flow at 50 mL/min.
When comparing the DSC of Form I and Form II, it was observed that Form II solids contained two peaks (FIG. 23), with the latter peak onset (≈191.0° C.) and Tmax (193.4° C.) similar to the peak onset and Tmax of Form I (FIG. 2).
The residual solvent could not be removed by conventional drying methods. […] The stoichiometric ratio of the compound of Formula (I) and 1,4-dioxane could be 4:1. The DSC of the solid (FIG. 26) contained a peak onset latter peak onset (≈192.6° C.) and Tmax (194.3° C.), which are similar to the peak onset (191.3° C.) and Tmax (193.3° C.) of Form I (FIG. 2).

CDK2/Cyclin E1 = target: T1, CDK2/Cyclin E1 (Homo sapiens, UniProt P24941); test: CDK2/Cyclin E1 HTRF enzyme activity assay; format: biochemical; conditions: 1 mM ATP
T1 construct: full-length human CDK2; GST (N); purchased Carna 04-165; host or cells: baculovirus expression system
Description: CDK2/Cyclin E1 enzyme activity assays utilize full-length human CDK2 co-expressed as N-terminal GST-tagged protein with FLAG-Cyclin E1 in a baculovirus expression system (Carna Product Number 04-165). Assays were conducted in white 384-well polystyrene plates in a final reaction volume of 8 μL. CDK2/Cyclin E1 (0.25 nM) was incubated with the compounds of the Examples (40 nL serially diluted in DMSO) in the presence of ATP (50 μM or 1 mM) and 50 nM ULight™-labeled eIF4E-binding protein 1 (THR37/46) peptide (PerkinElmer) in assay buffer (containing 50 mM HEPES pH 7.5, 1 mM EGTA, 10 mM MgCl2, 2 mM DTT, 0.05 mg/mL BSA, and 0.01% Tween 20) for 60 minutes at room temperature. The reactions were stopped by the addition of EDTA and Europium-labeled anti-phospho-4E-BP1 antibody (PerkinElmer), for a final concentration of 15 mM and 1.5 nM, respectively. HTRF signals were read after 1 hour at room temperature on a PHERAstar FS plate reader (BMG Labtech). Data was analyzed with IDBS XLFit and GraphPad Prism 5.0 software using a three or four parameter dose response curve to determine IC50 for each compound.

[2] = Solubility measurement in various solvents (HPLC); format: physicochemical; conditions: for Solubility (25° C.) / solubility at 48 h: 48 h; for Solubility (50° C.) / solubility at 24 h: 24 h; for solubility at 48 h: 25 °C; for solubility at 48 h / solubility at 24 h: organic solvent or mixture; for solubility at 24 h: 50 °C
Description: 5 mL of solvent (see Table 8) was added to the individual vials. The compound of Formula (I) Form I was added to the vials to get a cloudy solution at 25° C. Another approximately 20 mg of the compound of Formula (I) Form I was added to the cloudy solution. The mixture was agitated at 25±1° C. for 48 h, which was controlled by IKA® ETS-D5 temperature controller and IKA® RCT basic safety control. The supernatant was filtered using a syringe filter (0.22 μm). The saturated solution was pipetted into HPLC vials and diluted with MeOH or acetone.
The solubility measurement at 50° C. was performed according to the following procedure. 5 mL of solvent (see Table 8) was added to the individual vials. The compound of Formula (I) Form I was added to the vials to get a cloudy solution at 50° C. Another approximately 20-25 mg of the compound of Formula (I) Form I was added. The mixture was agitated at 50±1° C. for 24 h, which was controlled by IKA® ETS-D5 temperature controller and IKA® RCT basic safety control. The supernatant was filtered quickly using a warmed syringe filter (0.22 μm) at 50±1° C. The saturated solution was pipetted into HPLC vials and diluted with MeOH or acetone.

[3] = Phase equilibration (XRPD of equilibrated solid); format: physicochemical; conditions: Form I stirred at 25° C. for 48 hours or 50° C. for 24 hours, all solvents tested (Table 9)
Description: Phase equilibration studies were conducted to identify a predominant crystal form for phase identification. Based on its solubility in various solvent systems (Table 8), the compound of Formula (I) Form I was equilibrated in a representative groups of solvents at 25±1° C. and 50±1° C. To the solvents, the compound of Formula (I) Form I was added until a cloudy solution was obtained, then approximately 20 mg of the compound of Formula (I) Form I was added to the cloudy solution. The mixture was stirred at 25±1° C. or 50±1° C. for 48 hours or 24 hours, respectively. The solid was filtered, dried in vacuum, and analyzed by XRPD.

[4] = 1,4-dioxane, thermodynamic from solid, 1,4-Dioxane
[5] = 2-methoxyethanol, thermodynamic from solid
[6] = chloroform, thermodynamic from solid
[7] = dimethylformamide, thermodynamic from solid
[8] = iso-butyl acetate, thermodynamic from solid
[9] = methyl ethyl ketone, thermodynamic from solid
[10] = tetrahydrofuran (THF), thermodynamic from solid

## CCOc1c(-c2cn[nH]c2)ccn2nc(N[C@H]3CCN(S(C)(=O)=O)C[C@H]3C)nc12 [Form II, 8-ethoxy-N-((3R,4S)-3-methyl-1-(methylsulfonyl)piperidin-4-yl)-7-(1H-pyrazol-4-yl)-[1,2,4]triazolo[1,5-a]pyridin-2-amine]
[1]
  Solid form change during the heating process: changed to Form I

## CCOc1c(-c2cn[nH]c2)ccn2nc(N[C@H]3CCN(S(C)(=O)=O)C[C@H]3C)nc12 [Compound of Formula (I), 8-ethoxy-N-((3R,4S)-3-methyl-1-(methylsulfonyl)piperidin-4-yl)-7-(1H-pyrazol-4-yl)-[1,2,4]triazolo[1,5-a]pyridin-2-amine]
CDK2/Cyclin E1
  pIC50: ≥ 7.70

## CCOc1c(-c2cn[nH]c2)ccn2nc(N[C@H]3CCN(S(C)(=O)=O)C[C@H]3C)nc12 [compound of Formula (I) Form I, 8-ethoxy-N-((3R,4S)-3-methyl-1-(methylsulfonyl)piperidin-4-yl)-7-(1H-pyrazol-4-yl)-[1,2,4]triazolo[1,5-a]pyridin-2-amine]
[2]; 1,4-Dioxane
  Solubility (25° C.): >50* mg/mL
[2]; 1,4-Dioxane, 50° C.
  Solubility (50° C.): >50* mg/mL
[2]; [4]
  solubility at 48 h: > 50 mg/mL
  solubility at 24 h: > 50 mg/mL
[2]; 2-Me THF/H2O/Heptane (1:1.5%:1), 50° C.
  Solubility (50° C.): 0.6 mg/mL
[2]; 2-Me THF/H2O/heptane (1:1.5%:1), thermodynamic from solid, 2-Me THF/H2O/Heptane (1:1.5%:1), 50° C.
  solubility at 24 h: < 1 mg/mL
[2]; 2-Methoxyethanol
  Solubility (25° C.): >50* mg/mL
[2]; 2-Methoxyethanol, 50° C.
  Solubility (50° C.): >50* mg/mL
[2]; 2-Methyl THF, 50° C.
  Solubility (50° C.): 18.7 mg/mL
[2]; [5]
  solubility at 48 h: > 50 mg/mL
  solubility at 24 h: > 50 mg/mL
[2]; 2-methyl THF, thermodynamic from solid
  solubility at 24 h: 15 to 50 mg/mL
[2]; 3% water in EtOH, 50° C.
  Solubility (50° C.): 20.0 mg/mL
[2]; 3% water in EtOH, thermodynamic from solid
  solubility at 24 h: 15 to 50 mg/mL
[2]; Chloroform
  Solubility (25° C.): >50* mg/mL
[2]; Chloroform, 50° C.
  Solubility (50° C.): >50* mg/mL
[2]; DMSO
  Solubility (25° C.): >50* mg/mL
[2]; DMSO, thermodynamic from solid
  solubility at 48 h: > 50 mg/mL
  solubility at 24 h: > 50 mg/mL
[2]; DMSO, 50° C.
  Solubility (50° C.): >50* mg/mL
[2]; Dichloromethane
  Solubility (25° C.): 18.5 mg/mL
[2]; Dimethylformamide
  Solubility (25° C.): >50* mg/mL
[2]; Dimethylformamide, 50° C.
  Solubility (50° C.): >50* mg/mL
[2]; EtOH, 50° C.
  Solubility (50° C.): 15.7 mg/mL
[2]; EtOH, thermodynamic from solid
  solubility at 24 h: 15 to 50 mg/mL
[2]; Ethyl formate, 50° C.
  Solubility (50° C.): 15.2 mg/mL
[2]; MeOH
  Solubility (25° C.): 18.7 mg/mL
[2]; MeOH, thermodynamic from solid
  solubility at 48 h: 15 to 50 mg/mL
[2]; Methyl ethyl ketone
  Solubility (25° C.): 15.9 mg/mL
[2]; Methyl ethyl ketone, 50° C.
  Solubility (50° C.): 25.3 mg/mL
[2]; Tetrahydrofuran (THF)
  Solubility (25° C.): >50* mg/mL
[2]; Tetrahydrofuran (THF), 50° C.
  Solubility (50° C.): >50* mg/mL
[2]; Toluene, 50° C.
  Solubility (50° C.): 0.5 mg/mL
[2]; [6]
  solubility at 48 h: > 50 mg/mL
  solubility at 24 h: > 50 mg/mL
[2]; dichloromethane, thermodynamic from solid
  solubility at 48 h: 15 to 50 mg/mL
[2]; [7]
  solubility at 48 h: > 50 mg/mL
  solubility at 24 h: > 50 mg/mL
[2]; ethyl formate, thermodynamic from solid
  solubility at 24 h: 15 to 50 mg/mL
[2]; iso-Butyl acetate
  Solubility (25° C.): 1.1 mg/mL
[2]; iso-Butyl acetate, 50° C.
  Solubility (50° C.): 1.6 mg/mL
[2]; iso-Propyl acetate
  Solubility (25° C.): 1.8 mg/mL
[2]; [8]
  solubility at 48 h: 1 to 15 mg/mL
  solubility at 24 h: 1 to 15 mg/mL
[2]; iso-propyl acetate, thermodynamic from solid
  solubility at 48 h: 1 to 15 mg/mL
[2]; [9]
  solubility at 48 h: 15 to 50 mg/mL
  solubility at 24 h: 15 to 50 mg/mL
[2]; [10]
  solubility at 48 h: > 50 mg/mL
  solubility at 24 h: > 50 mg/mL
[2]; toluene, thermodynamic from solid
  solubility at 24 h: < 1 mg/mL
[3]
  Crystalline form for phase equilibration: crystalline Form I
